Data from patent US4191808A, “Method of measuring dipeptidyl-amino-peptidase activity” (Ajinomoto Co., Inc., priority 1975, dated 1980).
Peptide text beside a SMILES is read from it. * marks the point of attachment. pNA = O=[N+]([O-])c1ccc(N*)cc1

Assays:
[1] = tested on: human serum; assay: Paper chromatography of products after incubation with human serum; type: biochemical; settings: incubation 30 minutes
Experimental: The products obtained after incubating various X-L-proline p-nitroanilides with purified human submaxillary enzyme or human serum for 30 minutes as in Example 22 were examined by paper chromatography, the residues of glycine, L-alanine, L-glutamic acid, L-aspartic acid, L-lysine and L-argine being used as the N-terminal amino acids (X).
When the rate of hydrolysis of L-proline p-nitroanilide by human serum was examined, it was observed only 0.7% of hydrolysis of glycyl-L-proline p-nitroanilide.

[2] = target: T1, X-prolyl dipeptidyl-aminopeptidase in human serum (Homo sapiens, UniProt P27487); assay: Direct photometric assay of substrate hydrolysis (p-nitroaniline liberated, 385 nm) with human serum as enzyme source; type: biochemical; settings: for Enzyme activity (μmole/min/1 serum ± S.E.): 3 cases; for Amount of p-nitroaniline formed: 37° C., pH 8.7, 0.05 ml human serum; for Enzyme activity average ± S. E.: normal human sera
T1 construct: Even if crude enzyme such as human serum is used as enzyme source, the activity is accurately measured; from tissue; host or cells: human serum (normal subjects and patients)
Experimental: The relation between the incubation time and the amount of substrate hydrolyzed was examined, glycyl-L-proline p-nitroanilide and human serum being used as substrate and enzyme source, respectively, and the assay of the substrate hydrolyzed was carried out by the following direct photometric method.
Glycyl-L-proline p-nitroanilide tosylate was dissolved in 2% non-ionic detergent (Nikkol NP-10; Nikko Chemicals, Osaka, Japan) aqueous solution in a concentration of 3 mM to prepare the substrate solution. The following four tubes were prepared:
(1) the experimental tube contained 0.5 ml of 0.15 M glycine-NaOH buffer (pH 8.7), 0.5 ml of the substrate solution, and 0.05 ml of human serum
(2) the blank tube contained 0.5 ml of the 0.15 M glycine-NaOH buffer, 0.5 ml of the substrate solution and 0.05 ml of water.
(3) the standard tube contained 0.5 ml of the buffer, 0.5 ml of the substrate and 0.05 ml of 3 mM p-nitroaniline aqueous solution.
(4) the control tube contained 0.5 ml of the buffer and 0.5 ml of the substrate.
All tubes were incubated at 37° C. for the periods listed in Table 1, and the reaction was stopped by the addition of 3.0 ml of 1M acetate buffer (pH 4.2) to every tube. To the control tube, 0.05 ml of the human serum was added after stopping the reaction. A photometer was adjusted to zero with the blank, and the absorbances of the experimental (E), control (C), and standard (S) were read at 385 nm in a cuvette with 1 cm light path. p-Nitroaniline liberated by the enzyme reaction was calculated by the equation [formula]
(§1) 3mM substrate solutions were prepared as in Example 22, various dipeptide derivatives or salts thereof being used as substrates. The relative enzyme activities toward various substrates, and the rates and optimum pHs of hydrolysis of various substrates with the enzyme were measured as in Example 22.
(§2) ^c Activities were measured at pH 7.0 in 0.15 M Trismaleate buffer or
(§3) at pH 8.7 in 0.15 M glycineNaOH buffer. The values are the mean of
The activity of X-prolyl dipeptidyl-aminopeptidase was measured as in Example 22, glycyl-L-proline p-nitroanilide and 88 normal human sera being used as substrate and enzyme, respectively.
The activity of X-prolyl dipeptidyl-aminopeptidase was measured as in Example 22, glycyl-L-proline p-nitroanilide and human sera from patients being used as substrate and enzyme sources, respectively.
The activity of X-prolyl dipeptidyl-aminopeptidase was measured as in Example 22, various X-L-prolyl p-nitroanilides, and human sera from patients being used as substrates and enzyme sources, respectively.

[3] = tested on: purified human submaxillary enzyme (X-prolyl dipeptidyl-aminopeptidase); assay: Direct photometric assay of substrate hydrolysis with purified human submaxillary enzyme; type: biochemical
Experimental: as §1
^a Activities were measured in 0.15 M Trismaleate buffer at pH 5.6-8.
and in 0.15 M glycineNaOH buffer at pH 8.2-9.4, purified human
submaxillary enzyme being used. For Lalanyl-L-proline pnitroanilide,
amidiol buffer were used instead of glycine buffer, since glycine buffer
interfered the photometry at pH 9-10.
^b Km values were measured at 7.0 in Trismaleate buffer, purified
human submaxillary enzyme being used. The values are the mean of duplicat
as §2, §3
^d The purified enzyme was obtained by the following method; The
enzyme was solubilized from the microsomal fraction by autodigestion, and
subsequently purified by (NH4)2 SO4 fractionation followed
by Sephadex G200 chromatography.

[4] = Stability of aqueous substrate solution; type: physicochemical; settings: at the optimum pH, 4° C.
Experimental: The enzyme activity is measured without difficulty by using the dipeptide derivatives or salts thereof as substrates. An aqueous solution of X-L-proline-Y or salt thereof having a suitable concentration is first prepared. Since it requires a fairly long time to dissolve the substrate in water, it is preferred to use suitable substances capable of increasing the dissolution rate such as non-ionic detergents, acids and alcohols, or to use the substrate in the porous form which may be prepared by freeze-drying or the like. The porous substrate is most convenient for routine use for assay of the enzyme. The optimum pH of the substrate solution varies depending on the kind of substrate employed, but is easily determined by experiments. The optimum pH is usually in the range of from 6 to 9, preferably of from 7.5 to 8.9.

[5] = target: T1, X-prolyl dipeptidyl-aminopeptidase in human serum; assay: Hydrolysis of phenylazo substrates by human serum, photometry at 493 nm / 532 nm; type: biochemical
Experimental: 3 mM of substrate solutions were prepared as in Example 22, glycyl-L-proline p-phenylazoanilide tosylate and glycyl-L-proline 4-phenylazo-1-naphthylamide being used as substrates.
The assay of enzyme activity was carried out by adding 0.05 ml of human serum to a mixture of 0.5 ml […] glycine-NaOH buffer (pH 8.7) and 0.5 ml substrate solution in the experimental tube, incubating the resulting solution at 37° C. for 30 minutes, and then stopping the reaction with 3.0 ml 1N-hydrochloric acid. The absorbances were A 493 nm=0.18 for glycyl-L-proline p-phenylazoanilide and A 532 nm=0.80 for glycyl-L-proline 4-phenylazo-1-naphthylamide.
The rate of hydrolysis of glycyl-L-proline p-phenylazoanilide was measured as in Example 26, human serum being used as enzyme. However, the blank tube contained water instead of the enzyme solution in the experimental tube, and the standard tube contained 3 mM p-phenylazo-aniline solution instead of the enzyme solution in the experimental tube.

T1 sequence (P27487 39-766 limits assumed): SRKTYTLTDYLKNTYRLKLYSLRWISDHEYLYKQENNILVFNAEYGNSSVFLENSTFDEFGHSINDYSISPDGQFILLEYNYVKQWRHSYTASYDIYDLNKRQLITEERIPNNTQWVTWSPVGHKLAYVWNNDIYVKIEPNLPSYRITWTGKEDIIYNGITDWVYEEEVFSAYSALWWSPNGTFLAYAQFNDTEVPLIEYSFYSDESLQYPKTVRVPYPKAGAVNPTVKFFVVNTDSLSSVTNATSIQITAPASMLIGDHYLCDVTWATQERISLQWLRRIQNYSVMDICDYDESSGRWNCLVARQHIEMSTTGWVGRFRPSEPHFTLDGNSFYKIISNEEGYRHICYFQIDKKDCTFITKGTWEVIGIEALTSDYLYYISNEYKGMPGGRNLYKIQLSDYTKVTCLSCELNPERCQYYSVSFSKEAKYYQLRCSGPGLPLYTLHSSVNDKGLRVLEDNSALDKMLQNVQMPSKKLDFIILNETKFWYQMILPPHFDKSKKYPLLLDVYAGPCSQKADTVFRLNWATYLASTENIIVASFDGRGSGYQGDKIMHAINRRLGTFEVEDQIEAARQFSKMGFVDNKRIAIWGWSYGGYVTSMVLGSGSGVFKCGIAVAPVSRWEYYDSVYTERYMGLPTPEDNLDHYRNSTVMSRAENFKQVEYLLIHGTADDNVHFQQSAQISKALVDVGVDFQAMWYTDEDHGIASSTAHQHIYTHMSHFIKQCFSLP

For `NCC(=O)N1CCC[C@H]1C(=O)O` [Glycyl-L-proline] (H-Gly-Pro-OH), the “products identified by paper chromatography / hydrolysis by human serum” value [1] was “hydrolyzed to glycine and L-proline”.
`NCC(=O)N1CCC[C@H]1C(=O)Nc1ccc([N+](=O)[O-])cc1` [glycyl-L-proline p-nitroanilide, Glycyl-L-proline p-nitroanilide] (H-Gly-Pro-pNA) gave an Enzyme activity ([2]; human sera from patients, Acute lymphocytic leukemia, 22 cases) of 38.8 ± 11.9 μmole/min/1 serum, an Enzyme activity ([2]; human sera from patients, Early essential hypertension, 20 cases) of 80.94 ± 3.87 μmole/min/1 serum and an Enzyme activity ([2]; human sera from patients, Fixed essential hypertension, 17 cases) of 89.29 ± 3.69 μmole/min/1 serum. For the same compound, the “Enzyme activity (μmole/min/1 serum ± S.E.)” value ([2]; human sera from patients, Gastric Cancer) was 25.3 ± 3.0 μmole/min/1 serum, the Enzyme activity ([2]; human sera from patients, Gastric Cancer, 37 cases) was 38.4 ± 2.3 μmole/min/1 serum and the “Enzyme activity (μmole/min/1 serum ± S.E.)” value ([2]; human sera from patients, Hepatitis) was 143.0 ± 31.8 μmole/min/1 serum. It also gave an Enzyme activity ([2]; human sera from patients, Hepatitis, 23 cases) of 75.8 ± 28.5 μmole/min/1 serum, an Enzyme activity ([2]; human sera from patients, Hodgkin's disease, 15 cases) of 31.0 ± 9.5 μmole/min/1 serum and an Enzyme activity ([2]; human sera from patients, Lymphosarcoma, 11 cases) of 36.3 ± 5.6 μmole/min/1 serum. The Enzyme activity ([2]; human sera from patients, Pulmonary Cancer, 17 cases) was 39.8 ± 2.6 μmole/min/1 serum, the “Enzyme activity (μmole/min/1 serum ± S.E.)” value ([2]; human sera, Normal (control)) was 50.4 ± 15.0 μmole/min/1 serum and the Enzyme activity ([2]; human sera, Normal (control), 88 cases) was 54.9 ± 1.5 μmole/min/1 serum. For the same compound, the “Relative enzyme activity (%) Human serum pH 7.0” value ([2]; human serum, pH 7.0, 0.15 M Tris-maleate buffer, glycyl-L-proline p-nitroanilide = 100) was 100%, the “Relative enzyme activity (%) Human serum pH 8.7” value ([2]; human serum, pH 8.7, 0.15 M glycine-NaOH buffer, glycyl-L-proline p-nitroanilide = 100) was 100% and the “Amount of p-nitroaniline formed” value ([2]; incubation time 15 min) was 18.11 n mole. For the same compound, the “Amount of p-nitroaniline formed” value ([2]; incubation time 30 min) was 35.43 n mole, the “Amount of p-nitroaniline formed” value ([2]; incubation time 60 min) was 71.65 n mole and the “Amount of p-nitroaniline formed” value ([2]; incubation time 90 min) was 100.79 n mole. For the same compound, the “Amount of p-nitroaniline formed” value ([2]; incubation time 120 min) was 135.43 n mole, the “Enzyme activity average ± S. E.” value ([2]; Older Female, 17 subjects, 48-76 years) was 58.16 ± 4.37 μ mole/min/1 serum and the “Enzyme activity average ± S. E.” value ([2]; Older Male, 29 subjects, 41-81 years) was 53.18 ± 2.43 μ mole/min/1 serum. The “Enzyme activity average ± S. E.” value ([2]; Older, 46 subjects, 41-81 years) was 55.04 ± 2.23 μ mole/min/1 serum, the “Enzyme activity average ± S. E.” value ([2]; Total Female, 35 subjects, 20-76 years) was 52.49 ± 2.47 μ mole/min/1 serum and the “Enzyme activity average ± S. E.” value ([2]; Total Male, 53 subjects, 15-81 years) was 56.30 ± 1.90 μ mole/min/1 serum. The “Enzyme activity average ± S. E.” value ([2]; Total, 88 subjects, 15-81 years) was 54.88 ± 1.50 μ mole/min/1 serum, the “Enzyme activity average ± S. E.” value ([2]; Younger Female, 18 subjects, 20-40 years) was 47.59 ± 2.07 μ mole/min/1 serum and the “Enzyme activity average ± S. E.” value ([2]; Younger Male, 24 subjects, 15-40 years) was 60.10 ± 2.84 μ mole/min/1 serum. For the same compound, the “Enzyme activity average ± S. E.” value ([2]; Younger, 42 subjects, 15-40 years) was 54.76 ± 2.07 μ mole/min/1 serum, the “Optimum pH” value ([3]; Tris-maleate, glycine-NaOH or amidiol buffer) was 8.5-8.7 and the “Relative enzyme activity (%) Purified human submaxillary enzyme pH 7.0” value ([3]; pH 7.0, 0.15 M Tris-maleate buffer, glycyl-L-proline p-nitroanilide = 100) was 100%. The Km ([3]; pH 7.0, Tris-maleate buffer, mean of duplicate experiments) was 330 µM, the “storage of substrate solution without appreciable degradation” value [4] was “more than a week” and the “products identified by paper chromatography / hydrolysis by human serum” value [1] was “glycyl-L-proline, glycine, L-proline and p-nitroaniline were identified”.
With `Cc1ccc(S(=O)(=O)O)cc1.NCC(=O)N1CCC[C@H]1C(=O)Nc1ccc(N=Nc2ccccc2)cc1` [glycyl-L-proline p-phenylazoanilide, Glycyl-L-proline p-phenylazoanilide tosylate] the “absorbance A 493 nm” value ([5]; 0.05 ml human serum, pH 8.7, 37° C., 30 minutes) was 0.18 and the rate of hydrolysis ([5]; human serum as enzyme, as in Example 26) was 18.7 n mole/min./l serum.
